Activity calls are given as the source filed them.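 How the source made its calls: active means fitted half-maximal inhibitory concentration AC50 at most ten times the top concentration tested; inconclusive means flat fit with 30 to 70% inhibition, or unusable fit; inactive means AC50 above ten times the top concentration.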
target: E3 ubiquitin-protein ligase TRIM62 (Homo sapiens) (UniProt Q9BVG3); assay: TRIM62 E3 ligase activity on CARD9 – biochemical, ubiquitin ELISA, AlphaLISA TUBE, CARD9-TRIM62 disruptor project, dose response (AID 1259342); settings: TRIM62-mediated CARD9 ubiquitylation, AlphaLISA TUBE detection;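 on AC50: potency is for inhibitors that reduce CARD9 ubiquitylation signal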
Sequence (Q9BVG3 whole entry, looked up): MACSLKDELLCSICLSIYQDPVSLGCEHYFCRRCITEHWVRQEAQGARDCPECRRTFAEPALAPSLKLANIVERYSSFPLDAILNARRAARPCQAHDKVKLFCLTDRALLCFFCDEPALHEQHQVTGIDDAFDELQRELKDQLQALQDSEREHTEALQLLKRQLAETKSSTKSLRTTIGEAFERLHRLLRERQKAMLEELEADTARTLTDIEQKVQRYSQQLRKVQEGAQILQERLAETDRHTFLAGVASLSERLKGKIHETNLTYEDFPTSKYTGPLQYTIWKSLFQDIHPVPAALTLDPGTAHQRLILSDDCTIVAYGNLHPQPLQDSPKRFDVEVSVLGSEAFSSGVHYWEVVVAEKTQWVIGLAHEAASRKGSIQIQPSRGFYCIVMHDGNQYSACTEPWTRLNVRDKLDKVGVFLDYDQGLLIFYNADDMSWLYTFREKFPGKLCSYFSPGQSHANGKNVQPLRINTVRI

Question: For `Cc1ccc(Cc2cnc(N)s2)o1`, which AC50 is on record?
Answer: > 160 µM (inactive)

Question: For `Cc1sc2ncnc(SCc3ccco3)c2c1C`, which AC50 is on record?
Answer: 56.6 µM

Question: For `COc1cc(N)c(Cc2nccc3cc(OC)c(OC)cc23)cc1OC`, which AC50 is on record?
Answer: 79.5 µM

Question: How did the AC50 turn out when `COc1ccc(F)c(CN2C[C@H]3CC[C@@H]2CN(Cc2cscn2)C3)c1` was run?
Answer: > 160 µM (inactive)

Question: How did the AC50 turn out when `C[C@H](CO)N1C[C@H](C)[C@@H](CN(C)CC2CCCCC2)OCCCC[C@H](C)Oc2ccc(NS(C)(=O)=O)cc2C1=O` was run?
Answer: > 160 µM (inactive)

Question: For `O=c1oc(-c2ccccc2)nc2sc3c(c12)CCC3`, which AC50 is on record?
Answer: > 160 µM (inactive)

Question: How did the AC50 turn out when `Nc1c2c(nc3ccccc13)CCN(Cc1ccccc1)C2` was run?
Answer: > 160 µM (inactive)

Question: Which AC50 does the source give for `N#Cc1c(NC(=O)CSc2nc3ccccc3o2)sc2c1CCC2` here?
Answer: 74.1 µM

Question: How did the AC50 turn out when `Cc1cccc(Nc2nc(C(=O)Nc3cc(F)ccc3F)nc3ccccc23)c1` was run?
Answer: 24.3 µM

Question: `O=C(NCCCN1CCOCC1)c1cc(-c2ccco2)nc2ccccc12` was tested. Which AC50 did it give?
Answer: 11.3 µM

Question: `O=C(COC(=O)c1ccc(S(=O)(=O)NCc2ccco2)cc1)Nc1ccc(Cl)cn1` was tested. Which AC50 did it give?
Answer: 26.9 µM

Question: Which AC50 does the source give for `O=S(=O)(Nc1nccs1)c1ccc(-n2cccc2)cc1` here?
Answer: 17.4 µM

Question: How did the AC50 turn out when `O=C1c2ccccc2-c2nc3ccccc3nc21` was run?
Answer: > 160 µM (inactive)

Question: With `O=C(Nc1nncs1)c1cc(-c2ccco2)nc2ccccc12` as the molecule, how does the AC50 read?
Answer: 28.8 µM

Question: With `CC1=CCC(C(=O)O)C(C(=O)NC2CCCCC2)C1` (configuration not stated) as the molecule, how does the AC50 read?
Answer: 47.4 µM

Question: How did the AC50 turn out when `O=C(NCc1ccco1)c1c2c(nc3ccccc13)CCC2` was run?
Answer: 17.3 µM

Question: How did the AC50 turn out when `COc1ccc(NC(=O)c2nc(Nc3ccccc3)c3ccccc3n2)cc1` was run?
Answer: 67.8 µM

Question: Which AC50 does the source give for `Cc1ccc(C(=O)Nc2cnc(N3CCC(C(N)=O)(N4CCCCC4)CC3)c(C(=O)O)c2)cc1` here?
Answer: 9.21 µM

same assay, conditions: TRIM62-mediated CARD9 ubiquitylation, AlphaLISA TUBE detection; at 38 µM (top of the series)

Question: Which “activity change, negative = inhibition” value does the source give for `O=C(Nc1nc(-c2nc3ccccc3s2)cs1)c1ccco1` here?
Answer: inactive

same assay, conditions: TRIM62-mediated CARD9 ubiquitylation, AlphaLISA TUBE detection; at 80 µM (top of the series)

Question: How did the “activity change, negative = inhibition” value turn out when `O=C(O)c1ccccc1SC1CC(=O)N(Cc2ccccc2)C1=O` (configuration not stated) was run?
Answer: inactive

Question: For `O=C(O)COCC(=O)NCc1ccco1`, which “activity change, negative = inhibition” value is on record?
Answer: inactive

Question: For `O=C(CN1CCOC1=O)N1CCC2(CCC(=O)N(CCCn3ccnc3)C2)CC1`, which “activity change, negative = inhibition” value is on record?
Answer: inactive

Question: Which “activity change, negative = inhibition” value does the source give for `O=[N+]([O-])c1cccc(-c2nnc3ccc4ccccc4n23)c1` here?
Answer: inactive

Question: How did the “activity change, negative = inhibition” value turn out when `Fc1ccc(CSc2nnc(-c3cccnc3)n2Cc2ccco2)cc1` was run?
Answer: inactive

Question: For `N#Cc1sc2nc(-c3ccccc3)cc(-c3ccco3)c2c1N`, which “activity change, negative = inhibition” value is on record?
Answer: inactive

Question: How did the “activity change, negative = inhibition” value turn out when `O=C(Nc1ccc(OCC(=O)N2CCOCC2)cc1)c1cncc(Br)c1` was run?
Answer: inactive

Question: `COc1ccc(-c2nnc(-c3nc(Nc4ccc(NC(C)=O)cc4)c4ccccc4n3)o2)cc1` was tested. Which “activity change, negative = inhibition” value did it give?
Answer: inactive

Question: For `O=C(Nc1ccon1)c1cc2cccnc2n(Cc2ccccc2)c1=O`, which “activity change, negative = inhibition” value is on record?
Answer: inactive

Question: `O=C(NCc1cccnc1)c1ccccc1-c1nc(-c2ccccc2)no1` was tested. Which “activity change, negative = inhibition” value did it give?
Answer: inactive

Question: With `C=CCNc1ncnc2c1CCN(C(=O)c1ccc(CSC)o1)CC2` as the molecule, how does the “activity change, negative = inhibition” value read?
Answer: inactive

Question: Which “activity change, negative = inhibition” value does the source give for `O=C(CCN1CCOCC1)c1ccc2c(c1)OCCO2` here?
Answer: inactive

Question: `CCc1oc2ccccc2c1C(=O)CCN1CCCCC1` was tested. Which “activity change, negative = inhibition” value did it give?
Answer: inactive

Question: For `COc1ccc(-c2nc(SCC(=O)N3CCN(c4ccccc4OC)CC3)n[nH]2)cc1`, which “activity change, negative = inhibition” value is on record?
Answer: inactive

Question: How did the “activity change, negative = inhibition” value turn out when `CCOC(=O)C1CCN(C(=O)CN(Cc2ccccc2)S(C)(=O)=O)CC1` was run?
Answer: inactive

Question: With `O=[N+]([O-])c1ccc2cc[nH]c2c1` as the molecule, how does the “activity change, negative = inhibition” value read?
Answer: inactive

Question: How did the “activity change, negative = inhibition” value turn out when `N#Cc1c(-c2ccco2)cc(-c2cccnc2)nc1N` was run?
Answer: inactive

Question: `O=C1CC(c2ccco2)Cc2nc(N3CCc4ccccc4C3)ncc21` (configuration not stated) was tested. Which “activity change, negative = inhibition” value did it give?
Answer: inactive

From PubChem BioAssay AID1259342 (Broad Institute, 2017)
